# “Also recorded” adds a separate entry of the source. Counter-ions that a name gives are not always drawn.
# Assays:
# [1] = test system: gentamicin entry into hair cells; assay: Gentamicin-conjugated Texas Red (GTTR) uptake imaging; assay type: in vivo, zebrafish (Danio rerio); settings: protective drug at optimal dose; 50 uM GTTR for 3 min
# Excerpt: Gentamicin-conjugated Texas Red Imaging. […] Fish were anesthetized with MS222 and transferred to double wholemount slides for imaging using fluorescence microscopy on an automated stage (Marianas imaging system, Intelligent Imaging Innovations) with a Zeiss Axiovert 200M inverted microscope (Carl Zeiss). Each image contained a z-stack encompassing 2-3 neuromasts as determined by viewing under brightfield illumination. Each fish was imaged once and 5 fish were imaged for each treatment group. Control fish were treated with EM only (mock-treated) or with 3 min of 50 uM GTTR only.
# GTTR Image analysis. […] Then 2-3 neuromasts per image were traced and converted to a mask field “Mask 1”. […] Then Boolean addition was used to create the neuromast mask (NM) by taking “Mask1” AND thresholded segment and the background mask (BG) by taking “Mask2” AND thresholded segment. Mean intensity, standard deviation of intensity, sum intensity and volume in voxels were calculated for NM and BG. To create an index of intensity, NM/BG was calculated for each fish and values for mock-treated fish were subtracted and multiplied by 100 to obtain “% intensity above background”.
# [2] = test system: hair cells of the zebrafish lateral line; assay: Dose response testing: protection of zebrafish lateral line hair cells against toxin-induced hair cell death (DASPEI neuromast scoring); assay type: in vivo, zebrafish (Danio rerio)
# Description: Animal care. Wildtype Larval zebrafish (Danio rerio) were produced via group matings of adult fish. […] Beginning at 4 days post-fertilization (dpf), fish were fed live paramecia or rotifers daily. Experiments were performed using 5 or 6 dpf larvae. The University of Washington Animal Care and Use Committee approved of the animal procedures described here.
# Dose response testing. Drug screen “hits” were tested to determine minimum concentrations of drug and maximum concentrations of toxin that confer protection against hair cell death. All “hits” were tested against all four hair cell toxins regardless of whether a given “hit” was positive with a specific toxin in the screen. 5 or 6 dpf larvae were transferred to 6-well Corning Netwell baskets and placed in 6-well plates (Fisher Scientific) in EM with approximately 10 fish per basket. This allowed for easy transfer between treatment media. Drug and toxins were made up in 7 ml of EM. Larvae were pretreated for one hour in a dose of protective drug followed by cotreatment in protective drug and hair cell toxin. […] Then larvae were rinsed 4× and anesthetized with MS222. Larvae were transferred to glass depression slides and viewed on a Leica epifluorescent microscope with a DASPEI filter (Chroma Technologies, Brattleboro Vt.). […] To find minimum protective concentrations, doses of protective drug tested were 0, 0.5, 1, 5, 10, 50, 100 uM and toxin dose was held at the concentrations used for screening (see above). For those doses of putative protectants that killed the larvae, further doses were tested to determine if intermediate doses were optimal. For dose response curves finding maximum toxin dose at which protection occurs, dose of protective drug was held at previously determined optimal dose and toxin dose was varied as follows: […]
# bacteria = assay: Antibiotic efficacy of the ototoxic aminoglycoside in presence of protective drug; assay type: cell-based
# [3] = test system: hair cells of the zebrafish lateral line; assay: Screen of BIOMOL FDA Approved Drug Library for protection against toxin-induced hair cell death (YO-PRO1); assay type: in vivo, zebrafish (Danio rerio); settings: 4 μg/ml library compound, 1 hr preincubation
# Description: Drug Library. BIOMOL's FDA Approved Drug Library (Enzo Life Sciences Inc., Plymouth Meeting, Pa., USA (formerly BIOMOL International, L.P.)) was used to screen zebrafish larvae for compounds that protect against toxin-induced hair cell death. The library consists of 640 drugs dissolved at 2 mg/ml in dimethyl sulfoxide (DMSO). The drugs were aliquoted into eight 96-well plates with 80 drugs per plate and stored at 4 C during initial screening and re-testing.
# Screening. Larvae were prelabeled with 2 μM YO-PRO1 (Invitrogen, Carlsbad, Calif. USA; Y3603) in embryo medium for 30 min and then rinsed three times. […]
# Concentrations and incubation times were chosen based on previously determined dose-response in order to achieve maximal hair cell death at the lowest concentration of toxin (Ou et al. 2007; Owens et al. 2009). […] After incubation in library drug and hair cell toxin, larvae were anesthetized with 0.001% MS222 (3-aminobenzoic acid ethyl ester methanesulfonate; Sigma) and immediately viewed using fluorescence microscopy on an automated stage (Marianas imaging system, Intelligent Imaging Innovations) using a Zeiss Axiovert 200M inverted microscope (Carl Zeiss). Fish were scored on a scale from 0 to 2 with 2 corresponding to mostly healthy hair cells and a 0 corresponding to mostly dead hair cells. […]
# [4] = test system: hair cells of the zebrafish lateral line; assay: Pretreatment experiments (1 hr, 15 min or no pretreatment before 200 uM neomycin); assay type: in vivo, zebrafish (Danio rerio); settings: for Pre-treatment time prior to aminoglycoside exposure giving greater effectiveness: zebrafish, in vivo
# Excerpt: Pretreatment experiments. […] Controls were mock treated or treated with neomycin only.
# sensory hair cells = assay: Zebrafish model of protection of sensory hair cells against ototoxins (PROTO1); settings: in vivo
# [5] = test system: hearing (threshold shift); assay type: in vivo, rat; settings: rats; protectant 25 mg/kg intraperitoneally; kanamycin 25 mg/kg per day i.p. for two weeks
# Description: Rats were injected with 25 mg/kg per day (intraperitoneal) kanamycin for two weeks, a treatment that induces a hearing loss similar to that observed in humans following aminoglycoside treatment. At higher frequencies, the hearing loss observed in rats treated with kanamycin (without protectant) is a threshold shift of 50 dB and at mid-frequencies a hearing loss observed is 30-40 dB threshold shift.
# The PROTO1 was administered intraperitoneally at a dose of 25 mg/kg. The PROTO1 was given as a 3.33 mg/mL solution in 1:1:2:16 (DMSO:Cremophor EL:EtOH:PBS).
# [6] = test system: cultured lung cancer cells; assay: Inhibition of growth of cultured lung cancer cells in presence of protective drug (in vitro); assay type: cell-based; settings: in vitro testing
# zebrafish hair cells = assay: Quinoline ring derivatives: pretreatment protection against neomycin-induced hair cell death (FIG. 1); assay type: in vivo; settings: 5 dpf zebrafish; 0, 10, 50, 100 or 200 μM pretreatment; 200 μM neomycin
# Description: (§1) FIG. 1 is a bar graph depicting results of cinchonine pretreatment, which protects against neomycin-induced hair cell death. Five day post-fertilization zebrafish were pretreated with 0, 10, 50, 100 or 200 μM cinchonine prior to treatment with 200 μM neomycin. […] The negative control represents fish not exposed to neomycin. Data bars are mean hair cell survival from 8 to 10 fish. Error bars represent standard deviation from the mean.
# as §1, with “Five” for “FIG. 1 is a bar graph depicting results of cinchonine pretreatment, which protects against neomycin-induced hair cell death. Five”
# [7] = test system: hearing and vestibular function; settings: human, in vivo; cited from earlier work
SMILES,Uptake (whether gentamicin is able to enter cells in the presence of protective drug) [1],"Protection of sensory hair cells against gentamicin ([2]; zebrafish, in vivo)",Effect on antibiotic efficacy of the ototoxic aminoglycoside (bacteria),also measured
NC(=NCc1ccccc1)NC(=O)c1nc(Cl)c(N)nc1N [Benzamil],attenuate,,,
CCN(CC)CCCC(C)Nc1ccnc2cc(Cl)ccc12 (stereo not drawn) [Chloroquine diphosphate],,protect against gentamicin,without diminishing the antibiotic efficacy,
CNCCC(Oc1ccc(C(F)(F)F)cc1)c1ccccc1 (stereo not drawn) [Fluoxetine HCl],no block,,without diminishing the antibiotic efficacy,
O=C1NCN(c2ccccc2)C12CCN(CCCC(c1ccc(F)cc1)c1ccc(F)cc1)CC2 [Fluspirilene],no block,,without diminishing the antibiotic efficacy,
CN(C)C(=O)C(CCN1CCC(O)(c2ccc(Cl)cc2)CC1)(c1ccccc1)c1ccccc1 [Loperamide],no block,protect against gentamicin,without diminishing the antibiotic efficacy,"Protection of sensory hair cells against kanamycin ([2]; zebrafish, in vivo): protect against kanamycin; Protection in library screen against aminoglycosides (neomycin, gentamicin, kanamycin) and/or cisplatin [3]: protects against all four toxins"
CSc1ccc2c(c1)C(N1CCN(C)CC1)Cc1ccccc1S2.O=C(O)/C=C\C(=O)O (stereo not drawn) [Methiothepin maleate],no block,protect against gentamicin,without diminishing the antibiotic efficacy,"Drug dose (optimal dose that confers protection against toxins) ([2]; 5 or 6 dpf larvae, toxin dose held at screening concentration): 10 µM; Pre-treat (necessary pretreatment time before toxin exposure for effective protection) ([4]; followed by 1 hr cotreatment with 200 uM neomycin): 60 min; Pre-treatment time prior to aminoglycoside exposure giving greater effectiveness [4]: 60 min"
"CCN1CCc2c(sc(NC(=O)Nc3ccc(Cl)cc3)c2C(N)=O)C1 [PROTO1, 2-({[(4-chlorophenyl)amino]carbonyl}amino)-6-ethyl-4,5,6,7-tetrahydrothieno[2,3-c]pyridine-3-carboxamide]",,,,Protection of sensory hair cells against ototoxins in the Zebrafish model (sensory hair cells): shown to protect; Protection against kanamycin-induced hearing loss [5]: significant protection against hearing loss
Fc1ccc([C@@H]2CCNC[C@H]2COc2ccc3c(c2)OCO3)cc1 [Paroxetine HCl],attenuate,protect against gentamicin,without diminishing the antibiotic efficacy,"Protection of sensory hair cells against cisplatin ([2]; zebrafish, in vivo): protective against cisplatin; Effect on inhibition of growth of cultured lung cancer cells [6]: alters inhibition of growth of some cultured lung cancer cells at some doses and not at others"
CC(COc1ccccc1)N(CCCl)Cc1ccccc1 (stereo not drawn) [Phenoxybenzamine HCl],attenuate,protect against gentamicin,without diminishing the antibiotic efficacy,Pre-treatment time prior to aminoglycoside exposure giving greater effectiveness [4]: 15 min
CC(CCc1ccc(O)cc1)NCC(O)c1ccc(O)cc1 (stereo not drawn) [Ractopamine],block,protect against gentamicin; also recorded: protected,without diminishing the antibiotic efficacy,"Protection of sensory hair cells against kanamycin ([2]; zebrafish, in vivo): protect against kanamycin; also recorded: protected; Protection of sensory hair cells from neomycin ([2]; zebrafish, in vivo): protected"
O=C(c1ccc(OCCN2CCCCC2)cc1)c1c(-c2ccc(O)cc2)sc2cc(O)ccc12 [Raloxifene HCl],block,protect against gentamicin,without diminishing the antibiotic efficacy,
CC/C(=C(\c1ccccc1)c1ccc(OCCN(C)C)cc1)c1ccccc1 [Tamoxifen citrate],no block,,without diminishing the antibiotic efficacy,
CN(C)CCOc1ccc(/C(=C(/CCCl)c2ccccc2)c2ccccc2)cc1 [Toremifene citrate],,,without diminishing the antibiotic efficacy,
C=C[C@H]1C[N@@]2CC[C@H]1C[C@@H]2[C@@H](O)c1ccnc2ccccc12 [cinchonine],,,,Hair cell survival after neomycin with cinchonine pretreatment (zebrafish hair cells): increasing hair cell survival
N.N.[Cl][Pt][Cl] [cisplatin],,,,High frequency hearing loss (>8 kHZ) incidence [7]: ≤ 90%

# From patent US20110135756A1, “COMPOSITIONS AND METHODS FOR PROTECTING SENSORY HAIR CELLS” (University of Washington, priority 2009, published 2011)
